Test results published in patent US20080076751A1, “Azetidinone Derivatives and Methods of Use Thereof” (priority 2006, published 2008).

These molecules were tested against T1, human CaV3.2 (Homo sapiens, UniProt O95180) (assay: IonWorks screen for hCaV3.2 (T-type calcium current, voltage clamp)). Details: IonWorks HT, HEK cells, 10 min incubation, pulse 10, 8-point curve; read-out: IW hCav3 2 IC50.
T1 construct: expressed in transfected cells
Assay type: cell-based
Description: Functional evaluation of voltage-gated ion channels can be used to determine potency and/or single concentration efficacy of the Azetidinone Derivatives of the present invention. Two different methodologies can be used to measure ion currents: the lonWorks HT (Molecular Devices, Sunnyvale, Calif.) a moderate throughput voltage clamp screening platform that utilizes 96-well compound plates and conventional whole cell patch clamp for lower throughput, higher fidelity determinations.
HEK cells are transiently transfected and then selected for stable heterologous expression of different channel proteins of interest. Calcium channel cell lines expressed a resting potassium current, human Kir2.1, and the pore forming α-subunit of voltage-gated calcium channels. In the case of CaV2.1 cells the auxiliary subunit, β2a, is also expressed. Calcium channel lines that are used to generate the data will express either human CaV3.2, rat CaV3.2 or human CaV2.1. The human heart sodium channel, hNaV1.5, are stably expressed in CHO cells.
Cell lines can be grown at 37° C. in humidified incubators, equilibrated with 95% air/5% CO2. CHO cells can be grown in Ham's F-12 medium. HEK cells can be grown in DMEM. All media are supplemented with 10% heat-inactivated fetal bovine serum, penicillin, streptomycin and appropriate selection antibiotics (zeocin, geneticin and/or hygromycin). Cells are passaged when 80% confluent or less.
IonWorks Screen for hCaV3.2
The extracellular buffer for experiments using this instrument contained the following (mM) (NaCl 125, HEPES 10, KCl 5.4, CaCl2 1.8, MgCl2 1.8, 0.2 BaCl2 pH 7.35). The lonWorks uses amphotericin to gain electrical access to the cell interior. The internal solution contained (mM concentrations): 130 K-gluconate, 20 KCl, 5 HEPES-KOH (pH 7.25), 2 CaCl2, 1 MgCl2. Amphotericin added at 5 mg in 65 mL when present (in 650 μL DMSO). All internal and external solutions for this experiment contain 1% DMSO. Cells were acutely trypsinized from a T-75 flask and resuspended in extracellular buffer at a density of 2×10^5 cells/mL.
Experiments were performed at room temperature. Transmembrane potential was held at −100 mV for 5 seconds prior to running the voltage protocol. During this time leak currents were measured during a step to −110 mV (200 milliseconds). T-type calcium currents were activated with a 250 millisecond step to −20 mV. This depolarization step was repeated for a total of 10 pulses with an interpulse interval of 1 second. Data were excluded if the following acceptance criteria were not met: total resistance for the pre-compound scan>65 MΩ, pre-compound current>250 pA, post compound total resistance>50 MΩ.
T-type currents were measured as the peak inward current minus the current at the end of the 250 msec step to −20 mV. After the recoding configuration was established there was a pre-compound measurement of current amplitude. Compound was added as a 3× solution containing 1% DMSO. After incubation with compound for 10 minutes currents were measured again. The current amplitude after compound addition was divided by the pre-compound current for pulse 10 to determine the fraction of current remaining after compound addition. For each compound, 8-point concentration-effect relationships were measured with ½ log serial dilutions.

T1 sequence (O95180 whole entry): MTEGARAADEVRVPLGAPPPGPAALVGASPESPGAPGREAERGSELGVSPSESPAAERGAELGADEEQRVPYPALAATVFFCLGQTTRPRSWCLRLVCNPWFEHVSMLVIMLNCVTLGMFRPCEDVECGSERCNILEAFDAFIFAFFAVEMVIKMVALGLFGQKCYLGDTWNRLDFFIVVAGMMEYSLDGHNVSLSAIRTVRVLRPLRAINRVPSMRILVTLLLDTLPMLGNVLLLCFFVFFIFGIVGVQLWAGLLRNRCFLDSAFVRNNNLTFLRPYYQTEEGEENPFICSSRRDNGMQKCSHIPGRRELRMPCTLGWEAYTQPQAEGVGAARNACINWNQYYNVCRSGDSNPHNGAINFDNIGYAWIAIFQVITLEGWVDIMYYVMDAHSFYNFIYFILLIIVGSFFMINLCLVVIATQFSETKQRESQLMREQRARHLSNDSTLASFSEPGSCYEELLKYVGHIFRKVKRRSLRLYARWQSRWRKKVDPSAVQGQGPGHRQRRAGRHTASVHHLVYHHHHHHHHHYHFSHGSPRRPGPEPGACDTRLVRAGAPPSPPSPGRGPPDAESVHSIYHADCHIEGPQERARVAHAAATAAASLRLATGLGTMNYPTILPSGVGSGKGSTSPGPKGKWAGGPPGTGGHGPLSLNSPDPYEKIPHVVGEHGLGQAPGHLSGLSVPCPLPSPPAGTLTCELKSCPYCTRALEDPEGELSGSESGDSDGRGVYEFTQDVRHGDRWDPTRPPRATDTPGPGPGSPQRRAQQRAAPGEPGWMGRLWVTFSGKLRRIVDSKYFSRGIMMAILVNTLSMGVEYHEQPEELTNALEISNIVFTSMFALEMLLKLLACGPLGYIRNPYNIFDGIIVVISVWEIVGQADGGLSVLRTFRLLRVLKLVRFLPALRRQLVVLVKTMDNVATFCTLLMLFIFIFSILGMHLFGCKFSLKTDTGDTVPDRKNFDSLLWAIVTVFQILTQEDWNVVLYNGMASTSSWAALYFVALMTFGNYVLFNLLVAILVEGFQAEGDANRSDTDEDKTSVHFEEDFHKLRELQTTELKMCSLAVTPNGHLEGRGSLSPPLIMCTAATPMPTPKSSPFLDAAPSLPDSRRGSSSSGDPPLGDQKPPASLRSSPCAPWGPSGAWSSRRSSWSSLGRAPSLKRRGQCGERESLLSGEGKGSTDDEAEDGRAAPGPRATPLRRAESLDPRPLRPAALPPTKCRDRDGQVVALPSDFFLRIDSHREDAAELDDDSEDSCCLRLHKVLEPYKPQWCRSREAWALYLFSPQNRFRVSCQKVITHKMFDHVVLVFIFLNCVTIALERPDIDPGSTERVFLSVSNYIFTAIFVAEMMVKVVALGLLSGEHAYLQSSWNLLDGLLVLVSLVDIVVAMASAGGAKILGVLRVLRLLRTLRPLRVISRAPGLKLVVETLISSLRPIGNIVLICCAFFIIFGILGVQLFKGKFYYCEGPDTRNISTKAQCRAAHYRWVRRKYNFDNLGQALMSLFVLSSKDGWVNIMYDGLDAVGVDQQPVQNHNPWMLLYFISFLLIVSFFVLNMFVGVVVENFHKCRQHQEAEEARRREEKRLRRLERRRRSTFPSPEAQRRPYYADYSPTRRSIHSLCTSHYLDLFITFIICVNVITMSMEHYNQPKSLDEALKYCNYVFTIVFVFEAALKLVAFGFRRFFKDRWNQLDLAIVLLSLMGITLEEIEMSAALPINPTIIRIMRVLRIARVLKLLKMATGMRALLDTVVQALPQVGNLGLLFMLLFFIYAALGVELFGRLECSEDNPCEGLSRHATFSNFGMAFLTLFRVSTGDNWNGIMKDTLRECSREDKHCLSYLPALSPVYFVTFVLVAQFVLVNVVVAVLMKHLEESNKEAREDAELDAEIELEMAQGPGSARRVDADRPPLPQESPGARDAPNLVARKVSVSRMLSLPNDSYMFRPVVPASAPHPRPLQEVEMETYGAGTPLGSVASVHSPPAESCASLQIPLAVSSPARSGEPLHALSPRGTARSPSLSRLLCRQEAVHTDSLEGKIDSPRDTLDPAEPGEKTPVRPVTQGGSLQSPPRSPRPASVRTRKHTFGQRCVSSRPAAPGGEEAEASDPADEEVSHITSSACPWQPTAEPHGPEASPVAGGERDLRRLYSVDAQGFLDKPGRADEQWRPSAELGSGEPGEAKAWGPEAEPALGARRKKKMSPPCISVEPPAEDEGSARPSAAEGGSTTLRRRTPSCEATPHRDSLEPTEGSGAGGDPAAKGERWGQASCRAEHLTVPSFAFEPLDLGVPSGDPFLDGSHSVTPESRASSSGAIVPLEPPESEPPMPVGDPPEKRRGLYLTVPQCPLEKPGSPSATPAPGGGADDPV

Compound | IC50 [µM]
CC[C@H](C)[C@H](NC(=O)N1CCC2(CC1)C(=O)N(C(C)C)C2c1ccc(Br)cc1)C(=O)OC (some centres unmarked) | 0.277
CCC(C)[C@H](NC(=O)N1CCC2(CC1)C(=O)N(c1ccc(F)c(Cl)c1)C2c1ccc(C#N)cn1)C(=O)OC (some centres unmarked) | 0.26
O=C(Nc1cc(F)cc(F)c1)N1CCC2(CC1)C(=O)N(c1cccc(Cl)c1)C2c1cccc[n+]1O (centres unmarked) | 0.157
C[C@H](NC(=O)N1CCC2(CC1)C(=O)N(c1cncc(Cl)c1)C2c1ccccn1)c1ccc(F)cc1 (some centres unmarked) | 3.24
N#Cc1cncc(N2C(=O)C3(CCN(C(=O)Nc4cc(F)cc(F)c4)CC3)C2c2ccccn2)c1 (centres unmarked) | 2.38
O=C(Nc1cc(F)cc(F)c1)N1CCC2(CC1)C(=O)N(c1cncc(F)c1)C2c1ccccn1 (centres unmarked) | 2.1
CC[C@H](C)[C@H](NC(=O)N1CCC2(CC1)C(=O)N(c1cncnc1)C2c1ccccn1)C(=O)OC (some centres unmarked) | 2.61
C[C@H](NC(=O)N1CCC2(CC1)C(=O)N(c1cncnc1)C2c1ccccn1)c1ccc(F)cc1 (some centres unmarked) | 2.01
CC[C@H](C)[C@H](NC(=O)N1CCC2(CC1)C(=O)N(c1cccc(F)c1)C2c1ccc(Cl)cc1)C(=O)OC (single isomer, unassigned) | 0.057
N#Cc1cccc(NC(=O)N2CCC3(CC2)C(=O)N(c2cccc(F)c2)C3c2ccc(Cl)cc2)c1 (single isomer, unassigned) | 0.183
O=C(Nc1cc(F)cc(F)c1)N1CCC2(CC1)C(=O)N(c1cccc(F)c1)C2c1ccc(Cl)cc1 (single isomer, unassigned) | 0.39
CC[C@H](C)[C@H](NC(=O)N1CCC2(CC1)C(=O)N(c1cccc(Cl)c1)C2c1ccccn1)C(=O)OC (some centres unmarked) [drawing 571] | 0.584
CC[C@H](C)[C@H](NC(=O)N1CCC2(CC1)C(=O)N(c1cccc(Cl)c1)C2c1ccccn1)C(=O)OC (some centres unmarked) [drawing 572] | 0.635
C[C@H](NC(=O)N1CCC2(CC1)C(=O)N(c1cccc(Cl)c1)C2c1cccnc1)c1ccc(F)cc1 (some centres unmarked) [drawing 611] | 0.225
O=C(Nc1cc(F)cc(F)c1)N1CCC2(CC1)C(=O)N(c1cccc(Cl)c1)C2c1cccnc1 (centres unmarked) [drawing 635] | 0.021
O=C(Nc1cc(F)cc(F)c1)N1CCC2(CC1)C(=O)N(c1cccc(Cl)c1)C2c1cccnc1 (centres unmarked) [drawing 636] | 0.42
C[C@H](NC(=O)N1CCC2(CC1)C(=O)N(c1cccc(Cl)c1)C2c1cccnc1)c1ccc(F)cc1 (some centres unmarked) [drawing 637] | 0.669
CC[C@H](C)[C@H](NC(=O)N1CCC2(CC1)C(=O)N(c1cccc(Cl)c1)C2c1cccnc1)C(=O)OC (some centres unmarked) [drawing 640] | 0.88
CC[C@H](C)[C@H](NC(=O)N1CCC2(CC1)C(=O)N(c1cccc(Cl)c1)C2c1cccnc1)C(=O)OC (some centres unmarked) [drawing 641] | 1.3

Results, then the molecule that gave them:

IC50 [µM] | Compound
1.26 | N#Cc1cncc(N2C(=O)C3(CCN(C(=O)Nc4cccc(C(F)(F)F)c4)CC3)C2c2ccccn2)c1 (centres unmarked)
0.185 | O=C(Nc1cccc(Cl)c1)N1CCC2(CC1)C(=O)N(c1ccc(F)c(Cl)c1)C2c1ccccn1 (centres unmarked)
0.358 | N#Cc1cccc(NC(=O)N2CCC3(CC2)C(=O)N(c2ccc(F)c(Cl)c2)C3c2ccccn2)c1 (centres unmarked)
0.518 | O=C(Nc1cc(F)cc(F)c1)N1CCC2(CC1)C(=O)N(c1cncc(Cl)c1)C2c1ccccn1 (centres unmarked)
0.371 | O=C(Nc1cccc(F)c1)N1CCC2(CC1)C(=O)N(c1ccc(F)c(Cl)c1)C2c1ccccn1 (centres unmarked)
1.48 | N#Cc1cccc(NC(=O)N2CCC3(CC2)C(=O)N(c2cncc(Cl)c2)C3c2ccccn2)c1 (centres unmarked)
0.00433 | O=C(Nc1cccc(C(F)(F)F)c1)N1CCC2(CC1)C(=O)N(c1ccc(F)c(Cl)c1)C2c1ccccn1 (centres unmarked) [drawing 560]
0.083 | O=C(Nc1cccc(C(F)(F)F)c1)N1CCC2(CC1)C(=O)N(c1ccc(F)c(Cl)c1)C2c1ccccn1 (centres unmarked) [drawing 561]
0.155 | O=C(Nc1cccc(C(F)(F)F)c1)N1CCC2(CC1)C(=O)N(c1cncc(Cl)c1)C2c1ccccn1 (centres unmarked) [drawing 562]
0.0955 | O=C(Nc1cccc(C(F)(F)F)c1)N1CCC2(CC1)C(=O)N(c1cccc(Cl)c1)C2c1ccccn1 (centres unmarked) [drawing 563]
0.0195 | O=C(Nc1cccc(C(F)(F)F)c1)N1CCC2(CC1)C(=O)N(c1cccc(Cl)c1)C2c1ccccn1 (centres unmarked) [drawing 564]
0.0175 | N#Cc1cc(F)cc(NC(=O)N2CCC3(CC2)C(=O)N(c2ccc(F)c(Cl)c2)C3c2ccccn2)c1 (centres unmarked) [drawing 565]
0.371 | N#Cc1cccc(N2C(=O)C3(CCN(C(=O)Nc4cccc(C(F)(F)F)c4)CC3)C2c2ccccn2)c1 (centres unmarked) [drawing 567]
0.051 | N#Cc1cccc(N2C(=O)C3(CCN(C(=O)Nc4cccc(C(F)(F)F)c4)CC3)C2c2ccccn2)c1 (centres unmarked) [drawing 568]
0.745 | CC(NC(=O)N1CCC2(CC1)C(=O)N(c1cccc(Cl)c1)C2c1ccccn1)c1ccc(F)cc1 (centres unmarked) [drawing 575]
0.191 | CC(NC(=O)N1CCC2(CC1)C(=O)N(c1cccc(Cl)c1)C2c1ccccn1)c1ccc(F)cc1 (centres unmarked) [drawing 576]
0.732 | N#Cc1cccc(N2C(=O)C3(CCN(C(=O)Nc4cc(F)cc(F)c4)CC3)C2c2ccccn2)c1 (centres unmarked) [drawing 585]
0.247 | N#Cc1cccc(N2C(=O)C3(CCN(C(=O)Nc4cc(F)cc(F)c4)CC3)C2c2ccccn2)c1 (centres unmarked) [drawing 586]
2.91 | N#Cc1cccc(NC(=O)N2CCC3(CC2)C(=O)N(c2cccc(C#N)c2)C3c2ccccn2)c1 (centres unmarked) [drawing 593]
1.17 | N#Cc1cccc(NC(=O)N2CCC3(CC2)C(=O)N(c2cccc(C#N)c2)C3c2ccccn2)c1 (centres unmarked) [drawing 594]
0.124 | N#Cc1cccc(NC(=O)N2CCC3(CC2)C(=O)N(c2cccc(Cl)c2)C3c2cccnc2)c1 (centres unmarked) [drawing 634]
1.66 | N#Cc1cccc(NC(=O)N2CCC3(CC2)C(=O)N(c2cccc(Cl)c2)C3c2cccnc2)c1 (centres unmarked) [drawing 643]
